According to patent US11091749B2, “Deimmunized lysostaphin and methods of use” (TRUSTEES OF DARTMOUTH COLLEGE, priority 2014, dated 2021):

What was measured:
[1] = tested on: S. aureus cells; assay: Lytic assay using purified protein (SYTOX kinetic assay); format: cell-based, Staphylococcus aureus
Procedure: S. aureus cells were grown either to mid-log or to saturation in tryptic soy broth (TSB) at 37° C. with shaking. The cells were harvested by centrifugation and washed once in phosphate buffered saline (PBS: 2.7 mM KCl, 1.5 mM KH2PO4, 8.9 mM Na2HPO4, 136.9 mM NaCl, pH 7.4). The assay was performed in 96-well, black, clear bottom plates from Greiner Bio-One (Monroe, N.C.). The final (250 μl) reaction was composed of 10 μl of P. pastoris culture supernatant, S. aureus cells at OD600=1.5, and 5 μM SYTOX Green (Thermo Fisher Scientific; Waltham, Mass.), all in PBS. Data were collected using SPECTRAMAX GEMINI Fluorescence Microplate Reader (Molecular Devices; Sunnyvale, Calif.) using an excitation/emission of 504/523 nm, and rates were determined from the slope of the steepest linear portion of the trace. Each assay was performed with 500 ng of commercially-sourced lysostaphin (ssLys) as an internal control.
The activity of purified lysostaphin variants was examined using the SYTOX kinetic assay as previously described in Chapter 2, Section 3.2.6. 200 ng of purified enzyme (instead of culture supernatant) was used in each reaction.

[2] = tested on: MRSA strain 3425-3; assay: MIC assay; format: cell-based, Staphylococcus aureus; settings: biological duplicates
Procedure: (§1) The MICs of wild-type lysostaphin and its variants were determined by adding 2-fold serial dilutions of enzymes into wells of a polypropylene 96-well plate (Costar 3879) containing ˜40,000 S. aureus SA113 (or S. aureus 6445, 3425-1, 3425-3) cells in Muller Hinton broth (BD) supplemented with 2% NaCl and 0.1% bovine serum albumin, yielding a total volume of 100 μl. Plates were grown overnight at 37° C. with shaking at 900 rpm on an Orbit P4 orbital shaker (Labnet; Edison, N.J.). […] The assay was performed in triplicate for each enzyme.

[3] = tested on: S. aureus 3425-1; assay: MIC assay; format: cell-based, Staphylococcus aureus; settings: biological duplicates
Procedure: as §1

[4] = tested on: S. aureus SA113; assay: MIC assay; format: cell-based, Staphylococcus aureus
Procedure: as §1

[5] = P. pastoris expression level by SDS-PAGE; settings: densitometry of SDS-PAGE gels
Procedure: After DH5a clones were confirmed for the presence of correct catalytic domain mutation by sequence analysis, the purified plasmid was digested with SacI High-Fidelity restriction enzyme prior to electroporation into P. pastoris strain GS115. The resulting transformants were grown on MD plates (1.34% yeast nitrogen base, 0.000004% biotin, 2% dextrose and 1% agar). For expression studies, clones were grown in BMGY media (1% yeast extract, 2% peptone, 1.34% yeast nitrogen base, 0.000004% biotin, 1% glycerol, 100 mM phosphate buffer, pH 6) at 30° C. in 500 ml shake flasks covered with four layers of cheese cloth for enhanced oxygen flow to the yeast. […] The purity of lysostaphin was determined using SDS-PAGE. The protein concentration was quantified using ND-1000 Spectrophotometer (NanoDrop Technologies; Wilmington, Del.). To ensure accuracy, protein absorbance measure was adjusted using the absorbance adjustment factor of 0.4 for both wild-type lysostaphin and its variants. Briefly, the adjustment factor was calculated as the inverse of the reported Abs 0.1% (=1 g/L) value (ProtParam, ExPASy).
The amount of protein used in each assay was estimated from SDS-PAGE gels. […] The gel was stained using GELCODE Blue Stain Reagent from Thermo Fisher Scientific (Carlsbad, Calif.) and bands quantified using Quantity Tools from Image Lab 5.1 software (Bio-Rad Laboratories; Hercules, Calif.). […]

[6] = tested on: MRSA strain USA400; assay: In vitro inhibitory activity (MIC); format: cell-based, Staphylococcus aureus; settings: 50° C. for 1 hour prior to assay
Source text: F11, P12 and F13 were screened for in vitro inhibitory activity against MRSA strain USA400 (FIG. 7).

Substance: Wild-Type: wild-type lysostaphin (SEQ ID NO:49) produced in P. pastoris; aglycosylated Ser126Pro backbone in the design studies [reference compound]
- % Wild-Type Activity ([1]; 200 ng purified enzyme): 100%
- % WT Lytic Rate ([1]; biological duplicates): 100 ± 30%
- MIC Strain 3425-3 [2]: 0.03 µg/mL
- MIC Strain 3425-1 [3]: 0.04 µg/mL
- MIC ([4]; S. aureus SA113, purified enzyme): 0.0351 µg/mL
- MIC Strain SA113 ([4]; biological duplicates): 0.02 µg/mL
- Expression Level (% WT) [5]: 100 % WT
- retained original MIC activity after heating [6]: full
